Experimental data as given in US11912682B2, “Isoindolinone compounds” (Monte Rosa Therapeutics, Inc., priority 2021, dated 2024).
Read-outs that look alike come from different tables or passages of the source.

Columns and labels:
GSPT1 = GSPT1 (Homo sapiens (Human), UniProt P15170+Q96SW2); experiment: immunofluorescence assay for GSPT1 degradation in CAL-51 cells (Example 4); type: cell-based
Protocol: The representative compounds were tested in an immunofluorescence assay for their activity to bind to degrade GSPT1. CAL-51 cells were purchased from DSMZ (cat. Number ACC302), sub-cultured in 90% Dulbecco's MEM (4.5 g/L glucose, Gibco 11965) +10% heat inactivated FBS (BioConcept, 2-01F136I) and incubated at 37° C., 5% CO2. For the assay, imaging microtiterplate Cell Carrier 96 Ultra (Perkin Elmer 6055302) were pre-coated with Fibronectin (Sigma F085, 30 μl at 0.2 μg/ml) in PBS (100 μl, Gibco 14190) for 45 min at room temperature, rinsed with PBS and CAL-51 cells (30 K cells/well) were plated and let to adhere overnight. Cells were treated with compounds typically using a serial dilution ranging from 30 μM to 0.1 nM for 6 hours. Compounds were stored at 10 mM DMSO stocks. Vehicle (DMSO), positive (CC-885, 10 μM) and rescue controls (positive control plus 0.2 μM bortezomib) were also included atthis stage. Cells were subsequently rinsed with PBS and fixed in 10% Formalin solution (50 μl, Sigma HT5011)) for 20 mins at room temperature. Following three consecutive PBS washes (100 μl), cells were permeabilized in 0.1% Triton X-100 in PBS (Sigma 93443, 50 μl) for 15 mins at room temperature. Following three further PBS washes, 50 μl blocking buffer (1% BSA, Sigma A4503, in PBS) was added for 45 min for signal-to-noise reduction.
Primary antibody (human GSPT1, Sigma HPA052488) was diluted in blocking buffer (dil.1/300, 35 μl/well) and incubated with the cells overnight at 4° C. After three PBS washes, Alexa-fluor 488 coupled secondary antibodies (Invitrogen, A32731, dil.1/1000), Alexa-fluor 647-Phalloidin (Invitrogen, A22287, dil.1/200) and DAPI (Thermo, #62248, dil.1/1000) were diluted in blocking buffer and incubated with the samples for 2 hours at room temperature. After three final PBS washes, samples were conserved in 100 μl PBS in the dark, until measurement. Image acquisition was performed on the Operetta High-Content Imager (Perkin-Elmer). Fluorescence intensity of Alexa-Fluor 488 (GSPT1), Alexa-Fluor 647 (Actin) and DAPI (Nucleus) were measured. For the determination of GSPT1 DC50 values, a custom algorithm implemented in the PerkinElmer image analysis software Harmony-Acapella® was developed. After user-defined setting of adjustment parameters, the analysis was run identically without human intervention for all image fields. DAPI staining of the nuclei was used to determine the location of cells using standard nuclei detection modules. Segmentation artifacts were removed by threshold-based filters for area, roundness and intensity. The outline of the cells was determined analogously from the sum of the normalized, smoothed DAPI and Actin channel, starting from each nucleus. The Alexa-Fluor 488 (GSPT1) signal intensity in each cell was finally measured, in order to obtain a Mean intensity per cell. GSPT1 degradation (DC50) was calculated after normalization to controls and data import in CDD vault Database, using non-linear regression.

[1] = biological target: Full length wild-type cereblon CRBN (Homo sapiens (Human), UniProt Q96SW2); experiment: fluorescence polarization (FP) assay, cereblon binding
Source text: Compound activity was monitored in a fluorescence polarization (FP) homogeneous assay using 1-[5-({2-[2-(2-{[2-(2,6-dioxopiperidin-3-yl)-1,3-dioxo-2,3-dihydro-1H-isoindol-4-yl]oxy}acetamido)ethoxy]ethyl}carbamoyl)pentyl]-3,3-dimethyl-2-[(1E,3E)-5-[(2E)-1,3,3-trimethyl-5-sulfo-2,3-dihydro-1H-indol-2-ylidene]penta-1,3-dien-1-yl]-3H-indol-1-ium-5-sulfonate as a fluorescent probe. Unless otherwise stated, all reagents were purchased from Sigma Aldrich. […] Full length wild-type cereblon CRBN (80.0 nM, 10 μL) was incubated in assay buffer containing 20 mM HEPES (pH 8.0), […], 0.5 mM TCEP and 0.05% Tween 20 in the presence or absence of compound (300 nL). Inhibitors were stored as 10 mM DMSO stocks in an inert environment (low humidity, dark, low oxygen, room temperature) using the Storage Pod System. […] Following incubation at room temperature for 30 min, the assay was initiated by dispensing the probe to a final concentration of 5 nM (2.5 nL of a 20 μM stock) using the Echo ESXX. […] The FP signal was subsequently normalized to the no-compound control (i.e., DMSO). Analysis and IC50 values were derived using Dotmatics (Dotmatics UK) software.

[2] = 6 hours, read-out: Activity for GSPT1 degradation, Code (DC50)
[3] = GSPT1 degradation, read-out: DC50 value

Chain of GSPT1 (P15170 whole entry): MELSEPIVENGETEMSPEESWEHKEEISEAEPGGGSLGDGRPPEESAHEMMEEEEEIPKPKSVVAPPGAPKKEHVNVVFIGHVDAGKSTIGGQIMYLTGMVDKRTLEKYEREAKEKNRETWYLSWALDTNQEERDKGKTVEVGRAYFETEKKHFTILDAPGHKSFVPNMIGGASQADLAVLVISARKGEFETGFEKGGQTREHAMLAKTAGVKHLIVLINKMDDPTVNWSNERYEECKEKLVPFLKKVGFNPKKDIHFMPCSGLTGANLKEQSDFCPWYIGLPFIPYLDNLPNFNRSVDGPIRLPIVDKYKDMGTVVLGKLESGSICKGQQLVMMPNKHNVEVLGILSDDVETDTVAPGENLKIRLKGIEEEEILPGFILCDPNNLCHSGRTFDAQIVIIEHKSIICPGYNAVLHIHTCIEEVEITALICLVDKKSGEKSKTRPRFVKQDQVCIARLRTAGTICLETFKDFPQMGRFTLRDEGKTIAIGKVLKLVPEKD
Chain of GSPT1 (Q96SW2 whole entry): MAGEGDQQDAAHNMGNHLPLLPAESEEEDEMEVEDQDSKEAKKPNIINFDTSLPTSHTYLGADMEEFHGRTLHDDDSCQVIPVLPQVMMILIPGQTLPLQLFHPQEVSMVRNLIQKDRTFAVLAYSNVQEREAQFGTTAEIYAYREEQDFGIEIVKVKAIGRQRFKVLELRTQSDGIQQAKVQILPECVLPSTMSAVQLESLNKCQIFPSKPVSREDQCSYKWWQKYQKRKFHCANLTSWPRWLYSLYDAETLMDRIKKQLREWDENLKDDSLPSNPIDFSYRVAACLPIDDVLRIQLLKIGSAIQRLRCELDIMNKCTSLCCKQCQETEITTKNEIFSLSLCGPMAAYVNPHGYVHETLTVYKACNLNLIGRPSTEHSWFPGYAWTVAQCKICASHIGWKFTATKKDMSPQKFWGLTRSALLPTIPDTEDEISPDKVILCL
Chain of GSPT1 (Q16531 2-1140 partner): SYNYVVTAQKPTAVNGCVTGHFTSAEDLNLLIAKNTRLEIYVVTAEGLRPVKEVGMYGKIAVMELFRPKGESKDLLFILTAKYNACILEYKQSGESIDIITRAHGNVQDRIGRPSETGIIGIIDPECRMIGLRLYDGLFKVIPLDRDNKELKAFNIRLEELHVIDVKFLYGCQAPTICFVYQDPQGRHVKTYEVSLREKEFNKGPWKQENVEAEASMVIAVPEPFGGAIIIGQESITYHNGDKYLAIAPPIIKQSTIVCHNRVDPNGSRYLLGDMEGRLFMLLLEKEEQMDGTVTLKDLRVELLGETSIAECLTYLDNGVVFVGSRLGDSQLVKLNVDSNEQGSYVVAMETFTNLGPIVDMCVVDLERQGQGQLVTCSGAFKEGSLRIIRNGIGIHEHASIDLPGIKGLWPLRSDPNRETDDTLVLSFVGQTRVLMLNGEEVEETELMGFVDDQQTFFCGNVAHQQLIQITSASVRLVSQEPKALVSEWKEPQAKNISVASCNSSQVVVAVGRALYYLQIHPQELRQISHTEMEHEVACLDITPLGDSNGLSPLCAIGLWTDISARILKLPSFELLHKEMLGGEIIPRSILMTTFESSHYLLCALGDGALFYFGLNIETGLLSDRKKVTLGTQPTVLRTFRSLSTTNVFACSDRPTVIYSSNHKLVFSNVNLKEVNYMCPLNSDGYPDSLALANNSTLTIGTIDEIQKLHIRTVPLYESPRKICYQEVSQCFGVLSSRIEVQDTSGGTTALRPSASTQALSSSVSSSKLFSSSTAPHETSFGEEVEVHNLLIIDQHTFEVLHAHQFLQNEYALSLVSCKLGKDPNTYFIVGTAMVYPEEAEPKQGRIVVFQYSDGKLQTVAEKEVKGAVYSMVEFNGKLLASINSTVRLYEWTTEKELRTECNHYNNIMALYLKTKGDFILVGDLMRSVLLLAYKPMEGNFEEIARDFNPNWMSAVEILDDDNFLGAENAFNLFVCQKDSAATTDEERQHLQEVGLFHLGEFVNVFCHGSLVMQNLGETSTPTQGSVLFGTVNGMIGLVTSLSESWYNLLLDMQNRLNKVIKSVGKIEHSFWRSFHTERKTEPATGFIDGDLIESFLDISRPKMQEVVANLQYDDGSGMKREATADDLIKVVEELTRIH
Chain of Full length wild-type cereblon CRBN (Q96SW2 whole entry): as the sequence (Q96SW2 whole entry) above

DC50 (GSPT1; [2]) [nM] | IC50 ([1]; read-out: IC50 value) [nM] | DC50 (GSPT1; [3]) [nM] | IC50 ([1]; read-out: rFP IC50) [nM] | SMILES
30 to 300 | < 1100 |  |  | Cc1cc(NC(=O)OCc2ccc3c(c2)C(=O)N(C2CCC(=O)NC2=O)C3)cc(C)n1 (centres unmarked) [Compound 7]
< 30 | < 1100 | ≤ 30 |  | Cc1cc(C)cc(NC(=O)OCc2ccc3c(c2)C(=O)N(C2CCC(=O)NC2=O)C3)c1 (centres unmarked) [Compound 8]
< 30 | < 1100 | ≤ 30 |  | Cc1c(Cl)cc(NC(=O)OCc2ccc3c(c2)C(=O)N(C2CCC(=O)NC2=O)C3)cc1CN1CC2CC1CO2 (centres unmarked) [Compound 13]
> 300 |  |  | < 500 | O=C1CCC(N2Cc3ccc(COC(=O)Nc4cc(Cl)cc(OCC5CCNC5)c4)cc3C2=O)C(=O)N1 (centres unmarked) [Compound 16]
> 300 |  |  | > 1700 | Cc1ccc(NC(=O)OC(C)c2ccc3c(c2)C(=O)N(C2CCC(=O)NC2=O)C3)cc1Cl (centres unmarked) [Compound 17]
30 to 300 | < 1100 |  |  | O=C1CCC(N2Cc3ccc(COC(=O)Nc4ccc5c(c4)OCC5)cc3C2=O)C(=O)N1 (centres unmarked) [Compound 18]
30 to 300 |  |  | > 1700 | O=C1CCC(N2Cc3ccc(COC(=O)Nc4cc(Cl)cc(OC(F)F)c4)cc3C2=O)C(=O)N1 (centres unmarked) [Compound 19]
< 30 |  | ≤ 30 | > 1700 | Cc1c(Cl)cc(NC(=O)OCc2ccc3c(c2)C(=O)N(C2CCC(=O)NC2=O)C3)cc1CN1CC2CCC(C1)O2 (centres unmarked) [Compound 21]
> 300 |  |  | > 1700 | O=C1CCC(N2Cc3ccc(COC(=O)NCC4CC4)cc3C2=O)C(=O)N1 (centres unmarked) [Compound 22]
> 300 |  |  | < 500 | O=C1CCC(N2Cc3ccc(COC(=O)N4CCCCC4)cc3C2=O)C(=O)N1 (centres unmarked) [Compound 23]
< 30 | < 1100 | ≤ 30 |  | Cc1ccc(NC(=O)OCc2ccc3c(c2)C(=O)N(C2CCC(=O)NC2=O)C3)cc1OC(F)F (centres unmarked) [Compound 24]
< 30 | < 1100 | ≤ 30 |  | Cc1c(CN2CCOCC2)cc(NC(=O)OCc2ccc3c(c2)C(=O)N(C2CCC(=O)NC2=O)C3)cc1OC(F)F (centres unmarked) [Compound 25]
> 300 | < 1100 |  |  | O=C1CCC(N2Cc3ccc(COC(=O)N4CCCC4)cc3C2=O)C(=O)N1 (centres unmarked) [Compound 26]
> 300 |  |  | > 1700 | CC(C)CCNC(=O)OCc1ccc2c(c1)C(=O)N(C1CCC(=O)NC1=O)C2 (centres unmarked) [Compound 27]
> 300 | < 1100 |  |  | O=C1CCC(N2Cc3ccc(COC(=O)NC4CCCC4)cc3C2=O)C(=O)N1 (centres unmarked) [Compound 29]
> 300 |  |  | < 500 | O=C1CCC(N2Cc3ccc(COC(=O)N4CCC(Oc5ccccc5)C4)cc3C2=O)C(=O)N1 (centres unmarked) [Compound 30]
30 to 300 |  |  | > 1700 | O=C1CCC(N2Cc3ccc(COC(=O)Nc4cc(F)cc(OC(F)F)c4)cc3C2=O)C(=O)N1 (centres unmarked) [Compound 31]
30 to 300 |  |  | > 1700 | O=C1CCC(N2Cc3ccc(COC(=O)Nc4ccc(F)c(OC(F)F)c4)cc3C2=O)C(=O)N1 (centres unmarked) [Compound 32]
< 30 |  | ≤ 30 | > 1700 | Cc1c(CN2CCOCC2)cc(NC(=O)OCc2ccc3c(c2)C(=O)N(C2CCC(=O)NC2=O)C3)cc1OC(F)(F)F (centres unmarked) [Compound 34]
> 300 |  |  | < 500 | O=C1CCC(N2Cc3ccc(COC(=O)NC4CCN(c5ccccn5)CC4)cc3C2=O)C(=O)N1 (centres unmarked) [Compound 35]
> 300 |  |  | < 500 | O=C1CCC(N2Cc3ccc(COC(=O)N4CCN(c5ccccc5)CC4)cc3C2=O)C(=O)N1 (centres unmarked) [Compound 36]

DC50 (GSPT1; [2]) [nM] | IC50 ([1]; read-out: IC50 value) [nM] | DC50 (GSPT1; [3]) [nM] | IC50 ([1]; read-out: rFP IC50) [nM] | SMILES
30 to 300 |  |  | > 1700 | COc1cc(NC(=O)OCc2ccc3c(c2)C(=O)N(C2CCC(=O)NC2=O)C3)ccc1C (centres unmarked) [Compound 37]
> 300 | < 1100 |  |  | COc1cc(Cl)ccc1NC(=O)OCc1ccc2c(c1)C(=O)N(C1CCC(=O)NC1=O)C2 (centres unmarked) [Compound 38]
< 30 | < 1100 | ≤ 30 |  | O=C1CCC(N2Cc3ccc(COC(=O)Nc4ccc(C5CC5)cc4)cc3C2=O)C(=O)N1 (centres unmarked) [Compound 39]
30 to 300 |  |  | < 500 | CN1CCC(COc2cc(Cl)cc(NC(=O)OCc3ccc4c(c3)C(=O)N(C3CCC(=O)NC3=O)C4)c2)C1 (centres unmarked) [Compound 40]
< 30 | < 1100 | ≤ 30 |  | Cc1c(F)cc(NC(=O)OCc2ccc3c(c2)C(=O)N(C2CCC(=O)NC2=O)C3)cc1CN1CCOCC1 (centres unmarked) [Compound 41]
30 to 300 | < 1100 |  |  | Cc1c(Cl)cc(NC(=O)OCc2ccc3c(c2)C(=O)N(C2CCC(=O)NC2=O)C3)cc1OC1CCNC1 (centres unmarked) [Compound 44]
30 to 300 |  |  | > 1700 | CCc1cc(NC(=O)OCc2ccc3c(c2)C(=O)N(C2CCC(=O)NC2=O)C3)cc(Cl)c1C (centres unmarked) [Compound 45]
< 30 |  | ≤ 30 | < 500 | CN1CCC(Oc2cc(Cl)cc(NC(=O)OCc3ccc4c(c3)C(=O)N(C3CCC(=O)NC3=O)C4)c2)C1 (centres unmarked) [Compound 46]
< 30 |  | ≤ 30 | > 1700 | O=C1CCC(N2Cc3ccc(COC(=O)Nc4ccc(-c5ccccn5)cc4)cc3C2=O)C(=O)N1 (centres unmarked) [Compound 50]
30 to 300 | < 1100 |  |  | COc1cc(NC(=O)OCc2ccc3c(c2)C(=O)N(C2CCC(=O)NC2=O)C3)cnc1C (centres unmarked) [Compound 51]
> 300 | < 1100 |  |  | Cc1c(Cl)cc(NC(=O)OCc2ccc3c(c2)C(=O)N(C2CCC(=O)NC2=O)C3)cc1OCC1CCNC1 (centres unmarked) [Compound 52]
30 to 300 | < 1100 |  |  | O=C1CCC(N2Cc3ccc(COC(=O)Nc4cnc5c(c4)CCC5)cc3C2=O)C(=O)N1 (centres unmarked) [Compound 53]
> 300 |  |  | < 500 | O=C1CCC(N2Cc3ccc(COC(=O)Nc4cnc5c(c4)COCC5)cc3C2=O)C(=O)N1 (centres unmarked) [Compound 54]
< 30 | < 1100 | ≤ 30 |  | CCc1cc(NC(=O)OCc2ccc3c(c2)C(=O)N(C2CCC(=O)NC2=O)C3)cnc1C (centres unmarked) [Compound 55]
< 30 |  | ≤ 30 | > 1700 | O=C1CCC(N2Cc3ccc(COC(=O)Nc4cc(F)cc(OC(F)(F)F)c4)cc3C2=O)C(=O)N1 (centres unmarked) [Compound 57]
< 30 | < 1100 | ≤ 30 |  | CC1(c2ccc(NC(=O)OCc3ccc4c(c3)C(=O)N(C3CCC(=O)NC3=O)C4)cc2)CC1 (centres unmarked) [Compound 58]
30 to 300 |  |  | < 500 | O=C1CCC(N2Cc3ccc(COC(=O)Nc4cc(OC(F)(F)F)ccn4)cc3C2=O)C(=O)N1 (centres unmarked) [Compound 59]
30 to 300 |  |  | < 500 | O=C1CCC(N2Cc3ccc(COC(=O)Nc4ccc(N5CCCC5)nc4)cc3C2=O)C(=O)N1 (centres unmarked) [Compound 60]
< 30 |  | ≤ 30 | > 1700 | O=C1CCC(N2Cc3ccc(COC(=O)Nc4ccc(F)c(OC(F)(F)F)c4)cc3C2=O)C(=O)N1 (centres unmarked) [Compound 61]
30 to 300 | < 1100 |  |  | CC1(c2ccc(NC(=O)OCc3ccc4c(c3)C(=O)N(C3CCC(=O)NC3=O)C4)cc2)COC1 (centres unmarked) [Compound 62]
> 300 |  |  | < 500 | CCc1cc(NC(=O)OCc2ccc3c(c2)C(=O)N(C2CCC(=O)NC2=O)C3)ccn1 (centres unmarked) [Compound 63]
